# Assay results: ChEMBL document CHEMBL3351235, “β-amino-alcohol tethered 4-aminoquinoline-isatin conjugates: synthesis and antimalarial evaluation” (Eur J Med Chem, 2014)
# Legend:
# Plasmodium falciparum = experiment: Antimalarial activity against chloroquine-resistant ring stage Plasmodium falciparum W2 assessed as parasitemia after 48 hrs by flow cytometry; type: functional, organism-based; details: W2, 48 h
# [1] = Cytotoxicity against human HCT116 cells at 20 uM after 48 hrs by MTT assay relative to untreated control; details: hct-116, 48 h
# [2] = Cytotoxicity against human HCT116 cells at 0.2 uM after 48 hrs by MTT assay relative to untreated control; details: hct-116, 48 h
# [3] = Cytotoxicity against human HCT116 cells at 2 uM after 48 hrs by MTT assay relative to untreated control; details: hct-116, 48 h
SMILES,IC50 (Plasmodium falciparum),INH [1],INH [2],INH [3]
O=C1C(=O)N(CC(CO)NCCCCCCNc2ccnc3cc(Cl)ccc23)c2ccccc21 (centres undefined),62.9 nM,–,–,–
O=C1C(=O)N(CC(CO)NCCCCCCNc2ccnc3cc(Cl)ccc23)c2ccc(Cl)cc21 (centres undefined),49.7 nM,–,–,–
Cc1ccc2c(c1)C(=O)C(=O)N2CC(CO)NCCCNc1ccnc2cc(Cl)ccc12 (centres undefined),302 nM,–,–,–
O=C1C(=O)N(CC(CO)N2CCN(c3ccnc4cc(Cl)ccc34)CC2)c2ccccc21 (centres undefined),216 nM,–,–,–
O=C1C(=O)N(CC(CO)NCCNc2ccnc3cc(Cl)ccc23)c2ccc(Cl)cc21 (centres undefined),11.7 nM,88%,0%,-11%
O=C1C(=O)N(CC(CO)NCCCCNc2ccnc3cc(Cl)ccc23)c2ccccc21 (centres undefined),48.7 nM,37%,0%,-5%
O=C1C(=O)N(CC(CO)NCCNc2ccnc3cc(Cl)ccc23)c2ccccc21 (centres undefined),24.9 nM,91%,0%,2%
COc1cccc2c1C(=O)c1c(O)c3c(c(O)c1C2=O)C[C@@](O)(C(=O)CO)C[C@@H]3O[C@H]1C[C@H](N)[C@H](O)[C@H](C)O1 [DOXORUBICIN],–,79%,84%,79%
O=C1C(=O)N(CC(CO)NCCCCNc2ccnc3cc(Cl)ccc23)c2ccc(Cl)cc21 (centres undefined),101 nM,–,–,–
Cc1ccc2c(c1)C(=O)C(=O)N2CC(CO)N1CCN(c2ccnc3cc(Cl)ccc23)CC1 (centres undefined),1220 nM,–,–,–
O=C1C(=O)N(CC(CO)NCCCCNc2ccnc3cc(Cl)ccc23)c2ccc(F)cc21 (centres undefined),45.3 nM,83%,-1%,0%
O=C1C(=O)N(CC(CO)NCCCNc2ccnc3cc(Cl)ccc23)c2ccccc21 (centres undefined),75.5 nM,85%,2%,-12%
Cc1ccc2c(c1)C(=O)C(=O)N2CC(CO)NCCCCCCNc1ccnc2cc(Cl)ccc12 (centres undefined),55.8 nM,–,–,–
O=C1C(=O)N(CC(CO)NCCCCCCNc2ccnc3cc(Cl)ccc23)c2ccc(F)cc21 (centres undefined),59.6 nM,–,–,–
O=C1C(=O)N(CC(CO)N2CCN(c3ccnc4cc(Cl)ccc34)CC2)c2ccc(Cl)cc21 (centres undefined),1960 nM,–,–,–
O=C1C(=O)N(CC(CO)N2CCN(c3ccnc4cc(Cl)ccc34)CC2)c2ccc(F)cc21 (centres undefined),1850 nM,–,–,–
Cc1ccc2c(c1)C(=O)C(=O)N2CC(CO)NCCCCNc1ccnc2cc(Cl)ccc12 (centres undefined),58 nM,–,–,–
C[C@@H]1CC[C@H]2[C@@H](C)C(=O)O[C@@H]3O[C@@]4(C)CC[C@@H]1[C@]32OO4 [ARTEMISININ],4.37 nM,–,–,–
O=C1C(=O)N(CC(CO)NCCNc2ccnc3cc(Cl)ccc23)c2ccc(F)cc21 (centres undefined),488 nM,–,–,–
O=C1C(=O)N(CC(CO)NCCCNc2ccnc3cc(Cl)ccc23)c2ccc(F)cc21 (centres undefined),72.3 nM,66%,-2%,12%
O=C1C(=O)N(CC(CO)NCCCNc2ccnc3cc(Cl)ccc23)c2ccc(Cl)cc21 (centres undefined),13.5 nM,46%,0%,2%
